Measured values as given in the supplement of paper PMC10307832.

What was measured:
Assay in all cases: relative viability (nuclei count vs DMSO), 5 days (fraction); higher = more cells survive
BI-D1870 + OSI-027 = compound: CC(C)CCN1c2nc(Nc3cc(F)c(O)c(F)c3)ncc2N(C)C(=O)C1C [BI-D1870] + COc1cccc2cc(-c3nc([C@H]4CC[C@H](C(=O)O)CC4)n4ncnc(N)c34)[nH]c12 [OSI-027] (partner 0.5 µM)
How it was run: (§1)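 For relative viability, nuclei counts in treated wells were divided by those in vehicle wells. Lung cancer cell lines had been pin-tool dosed in 1536-well plates the day after seeding and cultured for 5 days, then fixed and stained in one step (final 0.05% Triton X-100, 1% formaldehyde, 1 ug/ml Hoechst) and imaged at 4×. Doses were one drug alone or a fixed anchor-drug dose plus five library-drug doses (not always all listed) in √10 steps, and values are duplicate-plate medians.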

BI-D1870 + Tozasertib = compound: CC(C)CCN1c2nc(Nc3cc(F)c(O)c(F)c3)ncc2N(C)C(=O)C1C [BI-D1870] + Cc1cc(Nc2cc(N3CCN(C)CC3)nc(Sc3ccc(NC(=O)C4CC4)cc3)n2)n[nH]1 [Tozasertib] (partner 0.1 µM)
How it was run: as §1

BI-D1870 + AZD7762 = compound: CC(C)CCN1c2nc(Nc3cc(F)c(O)c(F)c3)ncc2N(C)C(=O)C1C [BI-D1870] + NC(=O)Nc1cc(-c2cccc(F)c2)sc1C(=O)N[C@H]1CCCNC1 [AZD7762] (partner 0.2 µM)
How it was run: as §1

Zebularine + Alpelisib = compound: O=c1ncccn1[C@@H]1O[C@H](CO)[C@@H](O)[C@H]1O [Zebularine] + Cc1nc(NC(=O)N2CCC[C@H]2C(N)=O)sc1-c1ccnc(C(C)(C)C(F)(F)F)c1 [Alpelisib] (partner 2 µM)
How it was run: as §1

Cell Line	relative viability (BI-D1870 + OSI-027; first compound 0.04 µM)	relative viability (BI-D1870 + OSI-027; first compound 0.1265 µM)	relative viability (BI-D1870 + OSI-027; first compound 0.4 µM)	relative viability (BI-D1870 + OSI-027; first compound 1.265 µM)	relative viability (BI-D1870 + OSI-027; first compound 4 µM)	relative viability (BI-D1870 + Tozasertib; first compound 0.04 µM)	relative viability (BI-D1870 + Tozasertib; first compound 0.1265 µM)	relative viability (BI-D1870 + Tozasertib; first compound 0.4 µM)	relative viability (BI-D1870 + Tozasertib; first compound 1.265 µM)	relative viability (BI-D1870 + Tozasertib; first compound 4 µM)	relative viability (BI-D1870 + AZD7762; first compound 0.04 µM)	relative viability (BI-D1870 + AZD7762; first compound 0.1265 µM)	relative viability (BI-D1870 + AZD7762; first compound 0.4 µM)	relative viability (BI-D1870 + AZD7762; first compound 1.265 µM)	relative viability (BI-D1870 + AZD7762; first compound 4 µM)	relative viability (Zebularine + Alpelisib; first compound 1 µM)	relative viability (Zebularine + Alpelisib; first compound 3.162 µM)	relative viability (Zebularine + Alpelisib; first compound 31.62 µM)	relative viability (Zebularine + Alpelisib; first compound 100 µM)	relative viability (Zebularine + Alpelisib; first compound 10 µM)
NCI-H1993	0.481	0.511	0.53	0.537	0.54	0.606	0.602	0.58	0.566	0.612	0.878	0.682	1.03	0.988	0.471	0.666	0.76	0.68	0.699	
NCI-H1734	0.569	0.541	0.567	0.629	0.472	0.249	0.263	0.288	0.256	0.22	0.635	0.494	0.608	0.72	0.593	0.738	0.725	0.396	0.347	0.387
HOP-62	0.993	0.819	0.791	0.849	0.699	0.371	0.371	0.407	0.39	0.301	0.969	0.898	0.798	0.834	0.651	0.932	0.64	0.22	0.127	0.603
LOU-NH91	0.797	0.701	0.7	0.75	0.57	0.688	0.536	0.695	0.586	0.405	0.846	0.755	0.73	0.804	0.624	0.703	0.719	0.693	0.56	0.686
PC-14	0.995	0.626	0.747	0.773	0.605	0.62	0.561	0.55	0.659	0.367	0.449	0.301	0.361	0.344	0.316	1.04	0.953	0.111	0.163	0.232
NCI-H1437	0.924	0.788	0.807	0.941	0.786	0.432	0.382	0.377	0.387	0.363	1.09	1.06	1.12	1.1	1.06	1.16	1.03	1.14	0.319	
NCI-H460	0.825	0.504	0.43	0.442	0.185	0.467	0.0966	0.104	0.0609	0.0499	0.702	0.621	0.566	0.993	0.829	0.519	0.679	0.215	0.115	0.217
NCI-H1666	0.943	0.808	0.849	0.89	0.807	0.673	0.569	0.584	0.569	0.537	0.934	0.868	0.778	0.995	0.812	1.16	0.984	0.932	0.618	0.852
